Patent publication US20100022582A1, “Tetrahydroisoquinoline Compound and Medicinal Use Thereof” (priority 2005, published 2010)

Assays:
[1] = Oral administration experiment (plasma concentration); format: in vivo; conditions: (10 mg)/kg orally, male SD rats, plasma 0.5-6 hr
Description: The test compound (10 mg)/kg suspended in 5% gum arabic solution was forcedly administered orally to male SD rats (body weight 200-250 g). At 0.5, 1, 2, 4, 6 hr after administration, blood was drawn without anesthesia, and heparin plasma was separated by a conventional method. The concentration of the test compound in the plasma was measured by high performance liquid chromatography.

[2] = Stable radical elimination action (DPPH); conditions: 0.1 mM DPPH
Description: 0.1 mM Diphenyl-2-picrylhydrazyl (DPPH) acetonitrile (CH3CN) solution (3 mL) was placed in a glass test tube, and a DMSO solution of a test compound was added at a 1% dose (30 μL). As a control, 0.1 mM DPPH CH3CN solution (3 mL) containing DMSO (30 μL) was used and for a blank test, CH3CN (3 mL) containing DMSO (30 μL) was used. After standing the solutions at room temperature for 60 min (20 min for Examples 69, 72 and 73), the absorbance at 517 nm was measured by a spectrophotometer. A stable radical inhibitory rate when control was 100% was calculated from [(absorbance of test substance−absorbance of blank test)÷(absorbance of control−absorbance of blank test)].

[3] = test system: brain homogenate lipid peroxidation; experiment: Lipid peroxidation-inhibitory action (brain homogenate, MDA); format: biochemical, SD rat; conditions: rat brain homogenate, 37° C. for 30 min
Description: The brain was removed from male SD rat, and a 50 mM phosphate buffer (pH 7.4, 5-fold amount of brain weight) was added. The mixture was homogenized under ice-cooling for 30 sec, and centrifuged at 4° C., 3200 rpm for 10 min. The supernatant was diluted 5-fold with 50 mM phosphate buffer to give a brain homogenate. A test compound (10 μL) was placed in a glass test tube, the brain homogenate (1 mL) was added, and the mixture was incubated at 37° C. for 30 min. 20% Trichloroacetic acid (1 mL) was added to quench the reaction. The reaction mixture was centrifuged at room temperature, 4000 rpm for 10 min. Thiobarbituric acid (0.2 mL) was added to the supernatant (1 mL) and the mixture was heated at 95° C. for 15 min. The absorbance at 532 nm was measured, and lipid peroxide was quantified as malondialdehyde (MDA). The MDA level was compared between the control and the test compound-added sample, and the lipid peroxidation inhibitory rate was calculated.

[4] = test system: THP-1 cell-derived macrophage; experiment: Cholesterol ester accumulation-inhibitory activity (THP-1 cell-derived macrophage foam cell formation); format: cell-based; conditions: THP-1 macrophage, acetyl LDL, 3 days
Description: THP-1 cells (DAINIPPON PHARMACEUTICAL CO., LTD.) were subcultured in RPMI-1640 medium containing 10% fetal calf serum (FBS), and cells at 6-13th passage after purchase were used. The cells were suspended in FBS-containing RPMI-1640 medium to give a suspension having a concentration of 4×10^5 cells/mL. The cell suspension was seeded on 12-well microplate by 1 mL, and treated with phorbol 12-myristate 13-acetate (PMA, 200 nM) as a differentiation inducer into macrophage. Then, acetyl LDL (400 μg/mL) separately prepared from LDL derived from plasma of a rabbit with genetic hyperlipidemia (KHC rabbit, Japan Laboratory Animals Inc.) was added. A test compound further dissolved in dimethyl sulfoxide (DMSO) and diluted with FBS-containing RPMI-1640 medium and a control solvent were applied. After cultivation in a carbon dioxide incubator for 3 days, the cells were washed with phosphate-buffered saline (pH 7.0), and the lipid was extracted with hexane-isopropanol (3:2). In addition, the cells were lysed with 1N-NaOH, and the protein content was measured. Free cholesterol and cholesterol ester in the lipid extraction sample were measured according to the method of Kunitomo et al. [Japan. J. Pharmacol., 34, 153-158 (1984)]. Cholesterol esters in the control cells and the cells treated with the test compound were compared, and the cholesterol ester accumulation inhibitory rate of the test compound was calculated.

liver ACAT = experiment: ACAT inhibitory activity (rabbit liver microsome, cholesteryl oleate production); format: biochemical, Japanese white rabbits; conditions: 37° C. for 20 min
Description: Male Japanese white rabbits (body weight 2-2.5 kg) were bred on 100 g of a high cholesterol feed (feed added with cholesterol 1%, CLEA Japan, Inc.) daily for 4 weeks and sacrificed by exsanguination under anesthesia. The liver was removed, homogenated and centrifuged at 10,000 rpm and 4° C. for 15 min. The obtained supernatant was further centrifuged at 41,000 rpm and 4° C. for 60 min to give a microsome fraction. To a 0.15 M phosphate buffer were added the microsome suspension as an enzyme specimen, dimethyl sulfoxide (DMSO) or a solution (3 μL) of a test compound in DMSO and [1-14C]-oleoyl-CoA to be a reaction substrate to the total amount of 300 μL. After incubation at 37° C. for 20 min, a mixed solution of chloroform-methanol was added to quench the reaction. Water was added thereto and mixed, and the chloroform layer was separated. The solvent was evaporated to dryness and the residue was redissolved in n-hexane. The resulting solution was subjected to thin layer chromatography using a silica gel plate. The spot of cholesteryl oleate on the silica gel plate was scraped and quantified on a liquid scintillation counter. The ACAT inhibitory activity of the test compound is shown in cholesteryl oleate production inhibitory rate (%) [level of inhibition of cholesteryl oleate production as compared to the control].

Structure (SMILES) | maximum blood concentration [1] [µg/mL] | inhibitory rate (%) (10^−4M), stable radical ([2]; room temperature for 60 min) | inhibitory rate (%) (10^−4M), lipid peroxidation [3] | cholesteryl ester accumulation inhibitory rate (%) (concentration: 10^−6 M) [4] | liver ACAT inhibition rate (%) (concentration: 10^−6 M) (liver ACAT) | inhibitory rate (%) (10^−4M), stable radical ([2]; room temperature 20 min (Examples 69, 72 and 73))
CCCN(C)Cc1ccc2c(c1)CN(C(=O)C(C)C)[C@H](C(=O)Nc1cc(C)c(O)c(C)c1C)C2 [Example 138, N-(4-hydroxy-2,3,5-trimethylphenyl)-2-isobutyryl-7-(N-methylpropylamino)methyl-1,2,3,4-tetrahydroisoquinoline-(3S)-carboxamide] | 0.42 | – | – | – | – | –
CCCCCN1Cc2ccccc2C[C@H]1C(=O)Nc1cc(C(C)(C)C)c(O)c(C(C)(C)C)c1 [Example 51, N-(3,5-di-tert-butyl-4-hydroxyphenyl)-2-pentyl-1,2,3,4-tetrahydroisoquinoline-(3S)-carboxamide] | – | 63.8 | 100.3 | – | – | –
CCCCCCCC(C)(C)CN1Cc2cc(OC(C)(C)C(=O)O)ccc2C[C@H]1c1cc(C)c(O)c(C)c1C [Example 132, 2-{[2-(2,2-dimethylnonyl)-(3S)-(4-hydroxy-2,3,5-trimethylphenyl)-1,2,3,4-tetrahydroisoquinolin-7-yl]oxy}-2-methylpropionic acid] | – | 80.7 | 105.6 | – | – | –
CCN(CC)Cc1ccc2c(c1)CN(C(=O)C(C)(C)C)[C@H](C(=O)Nc1cc(C)c(O)c(C)c1C)C2 [Example 133, 7-diethylaminomethyl-2-(2,2-dimethylpropionyl)-N-(4-hydroxy-2,3,5-trimethylphenyl)-1,2,3,4-tetrahydroisoquinoline-(3S)-carboxamide] | 0.48 | 65.5 | – | – | – | –
CCCN(C)Cc1ccc2c(c1)CN(C(=O)C(C)(C)C)[C@H](C(=O)Nc1cc(C)c(O)c(C)c1C)C2 [Example 136, 2-(2,2-dimethylpropionyl)-N-(4-hydroxy-2,3,5-trimethylphenyl)-7-(N-methylpropylamino)methyl-1,2,3,4-tetrahydroisoquinoline-(3S)-carboxamide] | – | 71.3 | 89.6 | 66.4 | – | –
Cc1cc(NC(=O)[C@@H]2Cc3ccc(CN4CC(F)C4)cc3CN2C(=O)C(C)(C)C)c(C)c(C)c1O.Cl [Example 141, 2-(2,2-dimethylpropionyl)-7-(3-fluoroazetidin-1-yl)methyl-N-(4-hydroxy-2,3,5-trimethylphenyl)-1,2,3,4-tetrahydroisoquinoline-(3S)-carboxamide hydrochloride] | 0.49 | 63.7 | 94.8 | 88.0 | – | –
Cc1cc(NC(=O)[C@@H]2Cc3ccc(CN(C)CCF)cc3CN2C(=O)C(C)(C)C)c(C)c(C)c1O [Example 139, 2-(2,2-dimethylpropionyl)-7-(2-fluoro-N-methylethylamino)methyl-N-(4-hydroxy-2,3,5-trimethylphenyl)-1,2,3,4-tetrahydroisoquinoline-(3S)-carboxamide] | – | – | 99.7 | 84.6 | – | –
Cc1cc(NC(=O)[C@@H]2Cc3ccccc3CN2CC(C)(C)C)c(C)c(C)c1O.Cl [Example 48, 2-(2,2-dimethylpropyl)-N-(4-hydroxy-2,3,5-trimethylphenyl)-1,2,3,4-tetrahydroisoquinoline-(3S)-carboxamide hydrochloride] | – | 91.7 | 100.5 | – | – | –
CCCCC(=O)N1Cc2ccccc2C[C@H]1C(=O)Nc1cc(C(C)(C)C)c(O)c(C(C)(C)C)c1 [Example 13, N-(3,5-di-tert-butyl-4-hydroxyphenyl)-2-pentanoyl-1,2,3,4-tetrahydroisoquinoline-(3S)-carboxamide] | – | – | 100.1 | – | – | –
CCCN1Cc2cc(N(C)C)ccc2C[C@H]1C(=O)Nc1cc(C)c(O)c(C)c1C [Example 84, 7-dimethylamino-N-(4-hydroxy-2,3,5-trimethylphenyl)-2-propyl-1,2,3,4-tetrahydroisoquinoline-(3S)-carboxamide] | – | 71.9 | 100.9 | – | – | –
Cc1cc(NC(=O)[C@@H]2Cc3ccc(N(C)C)cc3CN2C(=O)C(C)C)c(C)c(C)c1O.Cl [Example 72, 7-dimethylamino-N-(4-hydroxy-2,3,5-trimethylphenyl)-2-isobutyryl-1,2,3,4-tetrahydroisoquinoline-(3S)-carboxamide hydrochloride] | 0.91 | – | – | 80.5 | 91.4 | 97.0
Cc1cc(NC(=O)[C@@H]2Cc3ccc(CNCCF)cc3CN2C(=O)C(C)(C)C)c(C)c(C)c1O.Cl [Example 140, 2-(2,2-dimethylpropionyl)-7-(2-fluoroethylamino)methyl-N-(4-hydroxy-2,3,5-trimethylphenyl)-1,2,3,4-tetrahydroisoquinoline-(3S)-carboxamide hydrochloride] | 0.44 | – | – | – | – | –
CC(C)(C)CN1Cc2ccccc2C[C@H]1C(=O)Nc1cc(C(C)(C)C)c(O)c(C(C)(C)C)c1 [Example 47, N-(3,5-di-tert-butyl-4-hydroxyphenyl)-2-(2,2-dimethylpropyl)-1,2,3,4-tetrahydroisoquinoline-(3S)-carboxamide] | – | 66.1 | 100.1 | – | – | –
Cc1cc(NC(=O)[C@@H]2Cc3ccc(N4CCN(C)CC4)cc3CN2C(=O)C(C)(C)C)c(C)c(C)c1O [Example 122, 2-(2,2-dimethylpropionyl)-N-(4-hydroxy-2,3,5-trimethylphenyl)-7-(4-methylpiperazin-1-yl)-1,2,3,4-tetrahydroisoquinoline-(3S)-carboxamide] | 0.60 | 72.3 | 75.9 | – | – | –
COC1CN(Cc2ccc3c(c2)CN(C(=O)C(C)(C)C)[C@H](C(=O)Nc2cc(C)c(O)c(C)c2C)C3)C1.Cl [Example 143, 2-(2,2-dimethylpropionyl)-N-(4-hydroxy-2,3,5-trimethylphenyl)-7-(3-methoxyazetidin-1-yl)methyl-1,2,3,4-tetrahydroisoquinoline-(3S)-carboxamide hydrochloride] | 0.46 | 61.0 | 64.1 | 60.9 | – | –
